“Also recorded” adds a separate entry of the source.
Columns and labels:
[1] = Fluorescence excitation/emission of the styryl dye library compounds; assay type: physicochemical
[2] = tested on: UACC-62 human melanoma cells; assay: Organelle localization in live cells by fluorescence microscopy; details: live UACC-62 cells, fluorescence microscope λex=405, 490, 570 nm; λem>510 nm

SMILES | EM(nm) ([1]; EX/EM peak no. 1) | EX(nm) ([1]; EX/EM peak no. 1) | LOCALIZATION [2] | EM(nm) ([1]; EX/EM peak no. 2) | EX(nm) ([1]; EX/EM peak no. 2)
COc1ccc2c(ccc(C=Cc3ccc(N(C)C)c4ccccc34)[n+]2C)c1.[I-] [Compound I27] | 630-660 nm | 420 nm | NUCLEOLI |  | 
CCc1ccc(C=Cc2c(OC)ccc3ccccc23)[n+](C)c1.[I-] [Compound E23] | 510 nm | 420(broad) nm | CYTO |  | 
CN(C)c1ccc(/C=C/c2ccc3ccccc3[n+]2C)cc1.[I-] [Compound H19] | 640 nm | 490(broad) nm | NUCLEOLI |  | 
COc1ccc2c(ccc(C=CC=Cc3ccc(N(C)C)cc3)[n+]2C)c1.[I-] [Compound I37] | 730 nm | 530 nm | CYTO |  | 
O=[N+]([O-])c1ccc(C=Cc2cc[n+](C34CC5CC(CC(C5)C3)C4)cc2)cc1.[Br-] [Compound B22] | 600 nm | 410-420 nm | MITO |  | 
COc1cc(OC)c(OC)cc1C=Cc1cc[n+](C23CC4CC(CC(C4)C2)C3)cc1.[Br-] [Compound B38] | 580 nm | 400-480 nm | NUCLEI and MITO |  | 
C[n+]1ccc(/C=C/c2c[nH]c3ccccc23)c2ccccc21.[I-] [Compound G24] | 610 nm | 490 nm | MITO |  | 
C[n+]1ccccc1C=Cc1ccc(OCc2ccccc2)c(OCc2ccccc2)c1.[I-] [Compound C12] | 520 nm | 390 (broad) nm | MITO? and ER? |  | 
COc1ccc2c(ccc(C=Cc3ccc(N(C)C)cc3)[n+]2C)c1.[I-] [Compound I19] | 630 nm |  | NUCLEOLI |  | 
C[n+]1c(C=Cc2c[nH]c3ccccc23)ccc2ccccc21.[I-] [Compound H24] | 560 nm | 400-500 nm | CYTO |  | 
COc1cc(OC)c(OC)cc1C=Cc1cc[n+](C)c(-c2cc(C)ccn2)c1.[I-] [Compound J38] | 590 nm | 380-500 nm | MITO |  | 
Cc1ccnc(-c2cc(C=Cc3ccc4c(c3)OCO4)cc[n+]2C)c1.[I-] [Compound J39] | 560 nm | 350-450 nm | MITO |  | 
Cc1ccnc(-c2cc(C=Cc3ccc4ccccc4c3)cc[n+]2C)c1.[I-] [Compound J33] | 520 nm | 320-450 nm | MITO |  | 
COc1ccc2ccccc2c1C=Cc1cccc(C)[n+]1C.[I-] [Compound L23] | 570 nm | 420 nm | CYTO |  | 
COc1ccc2c(ccc(C=Cc3cccc4ccccc34)[n+]2C)c1.[I-] [Compound I32] | 610 nm | 360-440 nm | MITO and NUCLEI and NUCLEOLI |  | 
COc1cc(OC)c(OC)cc1C=Cc1cc[n+](C)c2ccccc12.[I-] [Compound G38] | 640 nm | 420 nm | VESICLE and CYTO and NUCLEI |  | 
Cc1ccnc(-c2cc(/C=C/c3ccccc3Br)cc[n+]2C)c1.[I-] [Compound J3] | 620 nm | 450 nm | MITO |  | 
COc1ccccc1C=Cc1cc[n+](C)c(-c2cc(C)ccn2)c1.[I-] [Compound J9] | 520 nm | 420(broad) nm | MITO |  | 
C[n+]1ccc(C=Cc2cccc3ccccc23)cc1.[I-] [Compound A32] | 510 nm | 400 nm | MITO and CYTO and VESICLE |  | 
CC(=O)Nc1ccc(/C=C/c2cc[n+](C)c3ccccc23)cc1.[I-] [Compound G18] | 670 nm | 430 nm | MITO |  | 
COc1ccc2c(ccc(C=Cc3ccc(OCc4ccccc4)c(OCc4ccccc4)c3)[n+]2C)c1.[I-] [Compound I12] | 560 nm |  | VESICLE |  | 
COc1ccc(C=Cc2cc[n+](C)c(-c3cc(C)ccn3)c2)cc1.[I-] [Compound J10] | 520 nm | 350-450 nm | MITO |  | 
Cc1ccnc(-c2cc(C=Cc3c(F)c(F)c(F)c(F)c3F)cc[n+]2C)c1.[I-] [Compound J31] | 520 nm |  | MITO |  | 
Cc1cccc(C=CC=Cc2ccccc2)[n+]1C.[I-] [Compound L35] | 510 nm | 420 nm | MITO |  | 
COc1ccc2c(ccc(C=Cc3cc(OC)c(OC)cc3OC)[n+]2C)c1.[I-] [Compound I38] | 620 nm | 390 nm | CYTO |  | 
COc1ccc2c(ccc(C=Cc3ccc(O)cc3)[n+]2C)c1.[I-] [Compound I16] |  | 360 nm | VESICLE; also recorded: NUCLEOLI | 610 nm | 360-460 nm

SMILES | EM(nm) ([1]; EX/EM peak no. 1) | EX(nm) ([1]; EX/EM peak no. 1) | LOCALIZATION [2] | EM(nm) ([1]; EX/EM peak no. 2) | EX(nm) ([1]; EX/EM peak no. 2)
C[n+]1ccc(C=Cc2ccc(OCc3ccccc3)c(OCc3ccccc3)c2)cc1.[I-] [Compound A12] | 540 nm | 330-460 nm | MITO |  | 
C(=Cc1ccc2ccccc2c1)c1cc[n+](C23CC4CC(CC(C4)C2)C3)cc1.[Br-] [Compound B33] | 500 nm | 350-420 nm | MITO and CYTO and VESICLE | 580 nm | 360-400 nm
Cc1ccnc(-c2cc(C=CC=Cc3ccccc3)cc[n+]2C)c1.[I-] [Compound J35] | 580 nm | 340-420 nm | CYTO |  | 
C[n+]1c(C=Cc2ccc3ccccc3c2)ccc2ccccc21.[I-] [Compound H33] | 620 nm | 340-460 nm | MITO and NUCLEI and CYTO and VESICLE |  | 
C[n+]1c(C=Cc2cccc([N+](=O)[O-])c2)ccc2ccccc21.[I-] [Compound H21] | 630 nm | 420-550 nm | MITO and NUCLEOLI |  | 
COc1ccc2c(ccc(C=CC=Cc3ccccc3)[n+]2C)c1.[I-] [Compound I35] | 580 nm | 320-360 nm | CYTO |  | 
CN(C)c1ccc(C=CC=Cc2cc[n+](C34CC5CC(CC(C5)C3)C4)cc2)cc1.[Br-] [Compound B37] | 700 nm |  | MITO |  | 
COc1ccc(C=Cc2cc[n+](C)cc2)c2ccccc12.[I-] [Compound A14] | 550 nm | 430(broad) nm | MITO |  | 
COc1ccc(/C=C/c2cc[n+](C34CC5CC(CC(C5)C3)C4)cc2)cc1OC.[Br-] [Compound B11] | 540 nm | 340-440 nm | MITO |  | 
Oc1ccc(C=Cc2cc[n+](C34CC5CC(CC(C5)C3)C4)cc2)cc1.[Br-] [Compound B16] | 590 nm | 400 nm | MITO |  | 
C[n+]1c(C=Cc2ccc3c(c2)Cc2ccccc2-3)ccc2ccccc21.[I-] [Compound H28] | 660 nm | 350-500 nm | NUCLEI |  | 
C[n+]1ccc(C=Cc2c(F)c(F)c(F)c(F)c2F)c2ccccc21.[I-] [Compound G31] | 650 nm | 430 nm | MITO and NUCLEOLI |  | 
CCc1ccc(C=C/C=C/c2ccc(N(C)C)cc2)[n+](C)c1.[I-] [Compound E37] | 670 nm | 520 nm | MITO and NUCLEOLI |  | 
COc1ccc2c(ccc(C=Cc3cccc(Br)c3)[n+]2C)c1.[I-] [Compound I4] | 620 nm | 400(broad) nm | GRANULE |  | 
O=[N+]([O-])c1ccccc1C=CC=Cc1cc[n+](C23CC4CC(CC(C4)C2)C3)cc1.[Br-] [Compound B36] | 520 nm | 420 nm | MITO |  | 
COc1ccc2c(ccc(C=Cc3ccc(-c4ccccc4)cc3)[n+]2C)c1.[I-] [Compound I17] | 510 nm |  | VESICLE |  | 
COc1ccc2ccccc2c1C=Cc1cc[n+](C)c2ccccc12.[I-] [Compound G23] | 610 nm | 450-500 nm | VESICLE |  | 
C[n+]1c(C=Cc2ccc(OCc3ccccc3)c(OCc3ccccc3)c2)ccc2ccccc21.[I-] [Compound H12] | 560 nm | 430 nm | VESICLE |  | 
COc1ccc(C=Cc2ccc3cc(OC)ccc3[n+]2C)cc1.[I-] [Compound I10] | 520 nm |  | CYTO and VESICLE | 640 nm | 
C[n+]1c(/C=C/c2c(F)c(F)c(F)c(F)c2F)ccc2ccccc21.[I-] [Compound H31] | 610 nm | 420 nm | MITO and NUCLEI |  | 
COc1ccc2c(ccc(C=Cc3c(F)c(F)c(F)c(F)c3F)[n+]2C)c1.[I-] [Compound I31] | 610 nm | 380 nm | MITO and NUCLEI and CYTO |  | 
Cc1ccnc(-c2cc(/C=C/c3ccc(N(C)C)cc3)cc[n+]2C)c1.[I-] [Compound J19] | 640 nm | 480 nm | MITO |  | 
C[n+]1ccc(C=Cc2c[nH]c3ccccc23)cc1Br.[I-] [Compound F24] | 550 nm | 460 nm | VESICLE |  | 
COc1ccc(C=Cc2cc[n+](C)c3ccccc23)c2ccccc12.[I-] [Compound G14] | 620 nm | 480(broad) nm | MITO |  | 
C[n+]1ccc(C=Cc2ccccc2[N+](=O)[O-])c2ccccc21.[I-] [Compound G20] | 670 nm | 490-540 nm | MITO |  | 
COc1ccc2c(ccc(C=Cc3ccc(OC)c4ccccc34)[n+]2C)c1.[I-] [Compound I14] | 580-590 nm | 460 nm | VESICLE |  | 
